Reference: PMC7822874, “Chemoprotective antimalarials identified through quantitative high-throughput screening of Plasmodium blood and liver stage parasites” (Scientific Reports, 2021)
Read-outs that look alike come from different tables or passages of the source.

Assays:
Format in all cases: cell-based, Plasmodium falciparum
[1] = system: P. falciparum Dd2 (clone B2) asexual blood stage parasites; assay: P. falciparum Dd2 asexual blood stage SYBR Green-I 72 h proliferation assay (qHTS)
[2] = system: P. falciparum Dd2 cytochrome b mutant lines; assay: Drug response of drug-selected cytochrome b mutant lines versus parental Dd2-B2 (panel); details: all cytochrome b mutant lines vs Dd2-B2
Method: As resistance selection studies implicated the parasite cytochrome bc1 complex in mediating reduced parasite susceptibility to both NCGC00473217 and NCGC00374598, we leveraged these drug-selected parasites to test for altered drug response to a panel of antimalarial compounds.
The P. falciparum parasite Dd2 line was cultured in vitro using standard conditions. […] Tissue culture flasks and assay plates were incubated at 37 °C under a gas mixture of 5% CO2, 5% O2 and 90% N2. […] Significant differences were assessed using two-sided Student’s t-tests. All HTS assays were stopped and read at 72 h. Percent response values represent relative growth as judged by SYBR Green-I fluorescence intensity values normalized to controls.

[3] = system: P. falciparum Dd2 Cytb F123L; assay: SYBR Green ABS proliferation assay, NCGC00473217 selected clone G08
Outline: (§1)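 72 h SYBR Green-I read; % response = relative growth vs controls. Clones from resistance selection, cloned by limiting dilution; 37 °C, 5% CO2/5% O2/90% N2.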

[4] = system: P. falciparum Dd2 Cytb G131S; assay: SYBR Green ABS proliferation assay, NCGC00374598 selected clone C11
Outline: as §1

[5] = system: P. falciparum Dd2 Cytb V259L; assay: SYBR Green ABS proliferation assay, NCGC00473217 selected clone F06
Outline: as §1

[6] = system: P. falciparum Dd2 Cytb A122D; assay: SYBR Green ABS proliferation assay, NCGC00473217 selected clone F12
Outline: as §1

[7] = Plasmodium falciparum, DD2, 72 h, SYBR Green 72 h, WT Dd2-B2, read-out: AC50 Log[M] ± SD, Dd2-B2 (parental line) (converted)
[8] = Plasmodium falciparum, DD2, Suppl Table 6, read-out: AC50 (mM), WT (Dd2-B2)
[9] = Plasmodium falciparum, DD2, NCGC00473217 selected clone, read-out: AC50 Log[M] ± SD, Cytb F123L (converted)
[10] = Plasmodium falciparum, DD2, Suppl Table 6, read-out: AC50 (mM), Dd2 Cytb F123L
[11] = Plasmodium falciparum, DD2, NCGC00374598 selected clone, read-out: AC50 Log[M] ± SD, Cytb G131S (converted)
[12] = Plasmodium falciparum, DD2, Suppl Table 6, read-out: AC50 (mM), Dd2 Cytb G131S
[13] = Plasmodium falciparum, DD2, NCGC00473217 selected clone, read-out: AC50 Log[M] ± SD, Cytb V259L (converted)
[14] = Plasmodium falciparum, DD2, Suppl Table 6, read-out: AC50 (mM), Dd2 Cytb V259L
[15] = Plasmodium falciparum, DD2, NCGC00473217 selected clone, read-out: AC50 Log[M] ± SD, Cytb A122D (converted)
[16] = Plasmodium falciparum, DD2, Suppl Table 6, read-out: AC50 (mM), Dd2 Cytb A122D

Structure (SMILES)	AC50 [1, 7] [M]	AC50 [1, 8] [M]	change in susceptibility across drug-selected lines [2]	AC50 [3, 9] [M]	AC50 [3, 10] [M]	AC50 [4, 11] [M]	AC50 [4, 12] [M]	AC50 [5, 13] [M]	AC50 [5, 14] [M]	AC50 [6, 15] [M]	AC50 [6, 16] [M]	other results
CCN(CC)Cc1cc(Nc2ccnc3cc(Cl)ccc23)ccc1O [Amodiaquine, amodiaquine, reference compound]	4.68e-08	4.73e-08	no observed change in susceptibility	5.5e-08	5.51e-08	4.9e-08	4.91e-08	7.24e-08	7.21e-08	6.61e-08	6.68e-08	–
CO[C@H]1O[C@@H]2O[C@@]3(C)CC[C@H]4[C@H](C)CC[C@@H]([C@H]1C)[C@@]24OO3 [Artemether, artemether, reference compound]	5.13e-08	5.11e-08	no observed change in susceptibility	3.63e-08	3.61e-08	3.24e-08	3.22e-08	6.61e-08	6.68e-08	6.61e-08	6.68e-08	–
COc1cc2[nH]c(C)c(-c3ccc(Oc4ccc(OC(F)(F)F)cc4)cc3)c(=O)c2cc1Cl [ELQ-300, reference compound]	–	–	no observed change in susceptibility	–	–	–	–	–	–	–	–	AC50 Log[M] ± SD, Dd2-B2 (parental line) ([1]; SYBR Green 72 h, WT Dd2-B2): -7.13 Log[M]; AC50 ([1]; Suppl Table 6, read-out: AC50 (mM), WT (Dd2-B2)): 7.5e-08 M; AC50 Log[M] ± SD, Cytb F123L ([3]; NCGC00473217 selected clone): -7.68 Log[M]; AC50 ([3]; Suppl Table 6, read-out: AC50 (mM), Dd2 Cytb F123L): 2.11e-08 M; AC50 Log[M] ± SD, Cytb G131S ([4]; NCGC00374598 selected clone): -7.16 Log[M]; AC50 ([4]; Suppl Table 6, read-out: AC50 (mM), Dd2 Cytb G131S): 6.93e-08 M; AC50 Log[M] ± SD, Cytb V259L ([5]; NCGC00473217 selected clone): -7.06 Log[M]; AC50 ([5]; Suppl Table 6, read-out: AC50 (mM), Dd2 Cytb V259L): 8.73e-08 M; AC50 Log[M] ± SD, Cytb A122D ([6]; NCGC00473217 selected clone): -7.39 Log[M]; AC50 ([6]; Suppl Table 6, read-out: AC50 (mM), Dd2 Cytb A122D): 4.06e-08 M
OC(c1cc(C(F)(F)F)nc2c(C(F)(F)F)cccc12)C1CCCCN1 (centres unmarked) [Mefloquine, mefloquine, reference compound]	7.76e-08	7.78e-08	no observed change in susceptibility	9.77e-08	9.79e-08	8.32e-08	8.41e-08	1.23e-07	1.23e-07	1.29e-07	1.28e-07	–
